How the values were obtained:
[1] = target: 5-hydroxytryptamine receptor 2B (Homo sapiens, UniProt P41595); type: functional, cell-based
[2] = target: T1, Alpha-2A adrenergic receptor (Homo sapiens, UniProt P08913); type: functional, cell-based
T1 sequence (P08913 whole entry): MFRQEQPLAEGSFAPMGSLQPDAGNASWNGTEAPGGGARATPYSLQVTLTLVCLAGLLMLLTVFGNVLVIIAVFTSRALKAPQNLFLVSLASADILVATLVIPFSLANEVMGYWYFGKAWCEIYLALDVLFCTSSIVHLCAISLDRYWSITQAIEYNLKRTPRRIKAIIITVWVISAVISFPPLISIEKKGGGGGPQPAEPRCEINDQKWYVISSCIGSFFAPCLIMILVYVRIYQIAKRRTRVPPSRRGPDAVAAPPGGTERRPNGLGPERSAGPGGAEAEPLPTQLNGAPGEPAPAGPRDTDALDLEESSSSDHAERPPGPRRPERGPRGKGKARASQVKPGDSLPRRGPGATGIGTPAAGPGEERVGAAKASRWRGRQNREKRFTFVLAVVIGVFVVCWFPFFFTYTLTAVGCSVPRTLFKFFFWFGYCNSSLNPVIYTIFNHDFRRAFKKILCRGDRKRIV

Melanocortin receptor 4 = Melanocortin receptor 4 (Homo sapiens, UniProt P32245)
Sequence of Melanocortin receptor 4 (P32245 whole entry): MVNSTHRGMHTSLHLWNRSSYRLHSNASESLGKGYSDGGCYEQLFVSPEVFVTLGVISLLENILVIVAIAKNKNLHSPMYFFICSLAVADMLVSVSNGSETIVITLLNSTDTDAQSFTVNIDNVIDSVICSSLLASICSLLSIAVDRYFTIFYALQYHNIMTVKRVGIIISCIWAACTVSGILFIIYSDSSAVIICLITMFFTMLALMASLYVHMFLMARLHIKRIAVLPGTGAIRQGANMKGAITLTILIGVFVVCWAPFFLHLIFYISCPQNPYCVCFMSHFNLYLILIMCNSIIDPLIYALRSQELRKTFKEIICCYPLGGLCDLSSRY

Vasopressin V2 receptor = Vasopressin V2 receptor (Homo sapiens, UniProt P30518)
Sequence of Vasopressin V2 receptor (P30518 whole entry): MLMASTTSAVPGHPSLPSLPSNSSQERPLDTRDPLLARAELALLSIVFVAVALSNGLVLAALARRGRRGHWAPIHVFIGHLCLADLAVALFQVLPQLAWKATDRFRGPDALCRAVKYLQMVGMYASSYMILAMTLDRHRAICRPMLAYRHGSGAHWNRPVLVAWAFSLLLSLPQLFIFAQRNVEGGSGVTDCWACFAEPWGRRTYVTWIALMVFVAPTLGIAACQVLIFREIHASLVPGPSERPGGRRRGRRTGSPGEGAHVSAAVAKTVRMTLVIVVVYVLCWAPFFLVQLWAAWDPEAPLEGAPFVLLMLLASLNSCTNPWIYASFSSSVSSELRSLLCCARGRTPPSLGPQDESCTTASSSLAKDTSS

[3] = target: T2, Amine oxidase [flavin-containing] A (Homo sapiens, UniProt P21397); type: functional
T2 sequence (P21397 whole entry): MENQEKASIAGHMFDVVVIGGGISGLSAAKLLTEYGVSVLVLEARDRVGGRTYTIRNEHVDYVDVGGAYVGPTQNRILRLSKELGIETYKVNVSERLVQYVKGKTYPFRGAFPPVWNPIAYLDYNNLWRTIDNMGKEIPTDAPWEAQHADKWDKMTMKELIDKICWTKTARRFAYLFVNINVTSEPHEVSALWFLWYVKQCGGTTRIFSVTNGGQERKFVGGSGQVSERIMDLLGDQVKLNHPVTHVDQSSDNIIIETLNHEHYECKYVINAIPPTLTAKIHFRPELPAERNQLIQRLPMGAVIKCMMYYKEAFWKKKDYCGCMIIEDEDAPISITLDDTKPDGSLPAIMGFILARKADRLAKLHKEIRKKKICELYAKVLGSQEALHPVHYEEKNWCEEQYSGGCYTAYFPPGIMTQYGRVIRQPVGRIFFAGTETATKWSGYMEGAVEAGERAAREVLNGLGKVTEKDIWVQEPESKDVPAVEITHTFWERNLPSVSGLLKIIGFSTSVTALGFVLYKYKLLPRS

[4] = target: T3, Type-1 angiotensin II receptor (Homo sapiens, UniProt P30556)
T3 sequence (P30556 whole entry): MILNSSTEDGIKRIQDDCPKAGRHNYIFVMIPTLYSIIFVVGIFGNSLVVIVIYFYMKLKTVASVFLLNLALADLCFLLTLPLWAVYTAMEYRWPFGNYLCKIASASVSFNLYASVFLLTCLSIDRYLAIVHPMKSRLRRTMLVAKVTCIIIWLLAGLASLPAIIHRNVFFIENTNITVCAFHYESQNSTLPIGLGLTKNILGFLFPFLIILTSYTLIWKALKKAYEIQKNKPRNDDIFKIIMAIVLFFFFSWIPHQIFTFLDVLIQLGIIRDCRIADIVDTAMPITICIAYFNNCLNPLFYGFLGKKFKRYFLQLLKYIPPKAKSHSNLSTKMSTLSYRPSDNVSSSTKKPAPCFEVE

Cannabinoid receptor 1 = Cannabinoid receptor 1 (Homo sapiens, UniProt P21554)
Sequence of Cannabinoid receptor 1 (P21554 whole entry): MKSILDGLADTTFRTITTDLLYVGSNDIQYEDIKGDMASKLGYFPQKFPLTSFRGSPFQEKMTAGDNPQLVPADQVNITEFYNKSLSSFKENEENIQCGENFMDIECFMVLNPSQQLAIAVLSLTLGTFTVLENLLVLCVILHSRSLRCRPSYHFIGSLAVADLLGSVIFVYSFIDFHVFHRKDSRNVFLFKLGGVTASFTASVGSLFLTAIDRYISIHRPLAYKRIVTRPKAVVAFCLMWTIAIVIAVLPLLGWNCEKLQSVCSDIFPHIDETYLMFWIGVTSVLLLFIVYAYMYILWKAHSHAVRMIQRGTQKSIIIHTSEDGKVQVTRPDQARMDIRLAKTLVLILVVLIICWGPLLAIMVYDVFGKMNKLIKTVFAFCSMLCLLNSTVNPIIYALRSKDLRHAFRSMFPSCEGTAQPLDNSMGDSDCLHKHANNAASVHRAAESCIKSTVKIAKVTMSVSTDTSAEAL

Mu-type opioid receptor = Mu-type opioid receptor (Homo sapiens, UniProt P35372)
Sequence of Mu-type opioid receptor (P35372 whole entry): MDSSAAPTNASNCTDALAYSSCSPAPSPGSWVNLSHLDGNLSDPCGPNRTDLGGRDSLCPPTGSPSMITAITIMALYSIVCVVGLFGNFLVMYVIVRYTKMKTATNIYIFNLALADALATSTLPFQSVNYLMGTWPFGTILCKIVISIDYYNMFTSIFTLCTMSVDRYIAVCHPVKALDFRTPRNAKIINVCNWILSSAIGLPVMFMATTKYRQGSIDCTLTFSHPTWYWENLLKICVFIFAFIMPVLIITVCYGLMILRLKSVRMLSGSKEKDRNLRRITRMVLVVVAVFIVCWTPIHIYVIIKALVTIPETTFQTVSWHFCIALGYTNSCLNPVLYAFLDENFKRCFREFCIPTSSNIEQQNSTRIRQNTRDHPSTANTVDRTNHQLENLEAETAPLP

Histamine H2 receptor = Histamine H2 receptor (Homo sapiens, UniProt P25021); type: functional, cell-based
Sequence of Histamine H2 receptor (P25021 whole entry): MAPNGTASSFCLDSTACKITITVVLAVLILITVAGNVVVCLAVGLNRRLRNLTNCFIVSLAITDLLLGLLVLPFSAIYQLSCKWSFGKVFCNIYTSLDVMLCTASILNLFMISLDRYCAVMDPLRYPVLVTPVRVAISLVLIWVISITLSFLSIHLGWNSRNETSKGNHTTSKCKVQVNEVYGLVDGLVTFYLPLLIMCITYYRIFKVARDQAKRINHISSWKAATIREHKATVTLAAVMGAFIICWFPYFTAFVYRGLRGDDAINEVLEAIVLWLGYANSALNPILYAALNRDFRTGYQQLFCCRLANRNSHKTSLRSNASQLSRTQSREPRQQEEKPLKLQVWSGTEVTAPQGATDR

[5] = target: Gamma-aminobutyric acid receptor subunit alpha-1 (Rattus norvegicus, UniProt P62813); type: functional
Sequence of Gamma-aminobutyric acid receptor subunit alpha-1 (P62813 whole entry): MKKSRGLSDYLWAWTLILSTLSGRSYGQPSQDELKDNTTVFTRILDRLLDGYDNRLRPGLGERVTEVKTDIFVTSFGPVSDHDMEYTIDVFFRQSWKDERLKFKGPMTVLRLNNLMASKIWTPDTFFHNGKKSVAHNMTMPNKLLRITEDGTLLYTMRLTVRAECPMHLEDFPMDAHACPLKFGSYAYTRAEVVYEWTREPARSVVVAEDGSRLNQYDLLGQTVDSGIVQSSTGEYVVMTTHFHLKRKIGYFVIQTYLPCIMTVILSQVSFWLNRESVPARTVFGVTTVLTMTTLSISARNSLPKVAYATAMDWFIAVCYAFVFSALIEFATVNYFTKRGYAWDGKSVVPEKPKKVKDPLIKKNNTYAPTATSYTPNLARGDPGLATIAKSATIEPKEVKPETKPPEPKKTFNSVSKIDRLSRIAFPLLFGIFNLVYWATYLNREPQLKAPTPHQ

[6] = target: Beta-2 adrenergic receptor (Homo sapiens, UniProt P07550)
Sequence of Beta-2 adrenergic receptor (P07550 whole entry): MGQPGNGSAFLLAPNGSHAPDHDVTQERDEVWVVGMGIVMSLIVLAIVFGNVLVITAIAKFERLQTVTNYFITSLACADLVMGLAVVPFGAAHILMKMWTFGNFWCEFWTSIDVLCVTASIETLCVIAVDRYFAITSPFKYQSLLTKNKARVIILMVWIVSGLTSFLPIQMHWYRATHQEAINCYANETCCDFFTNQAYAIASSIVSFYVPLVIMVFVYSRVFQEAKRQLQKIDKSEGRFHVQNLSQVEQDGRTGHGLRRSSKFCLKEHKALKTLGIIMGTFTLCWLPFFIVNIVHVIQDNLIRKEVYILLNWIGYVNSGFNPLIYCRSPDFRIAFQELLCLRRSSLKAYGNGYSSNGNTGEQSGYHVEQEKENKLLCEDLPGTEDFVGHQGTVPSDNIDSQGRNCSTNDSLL

[7] = target: T4, Muscarinic acetylcholine receptor M1 (Homo sapiens, UniProt P11229); type: functional
T4 sequence (P11229 whole entry): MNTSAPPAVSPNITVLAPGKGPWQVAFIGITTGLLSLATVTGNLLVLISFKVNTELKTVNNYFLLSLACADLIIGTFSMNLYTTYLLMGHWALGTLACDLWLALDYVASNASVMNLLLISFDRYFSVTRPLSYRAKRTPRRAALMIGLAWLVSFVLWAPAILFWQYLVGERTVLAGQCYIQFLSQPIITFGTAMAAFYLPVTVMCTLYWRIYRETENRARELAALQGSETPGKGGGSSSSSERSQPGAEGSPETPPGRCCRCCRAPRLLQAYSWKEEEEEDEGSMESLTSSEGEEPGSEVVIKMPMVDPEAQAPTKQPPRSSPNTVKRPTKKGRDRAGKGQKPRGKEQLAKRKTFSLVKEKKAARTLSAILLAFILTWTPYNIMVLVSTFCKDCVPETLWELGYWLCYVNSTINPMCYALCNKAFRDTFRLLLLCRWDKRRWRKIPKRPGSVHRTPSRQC

Vasopressin V1a receptor = Vasopressin V1a receptor (Homo sapiens, UniProt P37288)
Sequence of Vasopressin V1a receptor (P37288 whole entry): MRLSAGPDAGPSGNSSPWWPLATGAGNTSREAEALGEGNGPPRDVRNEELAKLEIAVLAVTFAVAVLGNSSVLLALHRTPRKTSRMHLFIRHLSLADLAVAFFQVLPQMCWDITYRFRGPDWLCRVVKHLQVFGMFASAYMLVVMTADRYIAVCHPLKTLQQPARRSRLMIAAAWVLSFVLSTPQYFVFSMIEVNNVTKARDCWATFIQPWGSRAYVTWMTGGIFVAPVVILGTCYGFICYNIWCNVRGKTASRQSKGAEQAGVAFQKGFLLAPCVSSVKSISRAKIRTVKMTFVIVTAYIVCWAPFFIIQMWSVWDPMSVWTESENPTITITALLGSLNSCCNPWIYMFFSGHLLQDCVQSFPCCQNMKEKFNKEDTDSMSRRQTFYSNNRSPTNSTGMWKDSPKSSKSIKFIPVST

[8] = target: T5, Alpha-1A adrenergic receptor (Homo sapiens, UniProt P35348); type: functional, cell-based
T5 sequence (P35348 whole entry): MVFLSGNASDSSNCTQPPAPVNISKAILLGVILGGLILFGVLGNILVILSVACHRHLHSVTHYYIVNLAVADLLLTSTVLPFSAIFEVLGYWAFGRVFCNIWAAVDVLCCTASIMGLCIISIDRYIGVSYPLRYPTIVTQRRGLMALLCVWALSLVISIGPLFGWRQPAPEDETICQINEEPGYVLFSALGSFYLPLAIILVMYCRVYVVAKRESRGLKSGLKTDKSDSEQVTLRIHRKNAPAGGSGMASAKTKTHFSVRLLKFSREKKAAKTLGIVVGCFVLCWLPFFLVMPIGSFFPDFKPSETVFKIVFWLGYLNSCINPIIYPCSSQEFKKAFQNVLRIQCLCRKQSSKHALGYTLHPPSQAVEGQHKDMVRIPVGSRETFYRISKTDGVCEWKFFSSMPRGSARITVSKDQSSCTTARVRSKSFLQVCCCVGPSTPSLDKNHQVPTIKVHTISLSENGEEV
Further: assay procedure not described here.

Sequence of 5-hydroxytryptamine receptor 2B (P41595 whole entry): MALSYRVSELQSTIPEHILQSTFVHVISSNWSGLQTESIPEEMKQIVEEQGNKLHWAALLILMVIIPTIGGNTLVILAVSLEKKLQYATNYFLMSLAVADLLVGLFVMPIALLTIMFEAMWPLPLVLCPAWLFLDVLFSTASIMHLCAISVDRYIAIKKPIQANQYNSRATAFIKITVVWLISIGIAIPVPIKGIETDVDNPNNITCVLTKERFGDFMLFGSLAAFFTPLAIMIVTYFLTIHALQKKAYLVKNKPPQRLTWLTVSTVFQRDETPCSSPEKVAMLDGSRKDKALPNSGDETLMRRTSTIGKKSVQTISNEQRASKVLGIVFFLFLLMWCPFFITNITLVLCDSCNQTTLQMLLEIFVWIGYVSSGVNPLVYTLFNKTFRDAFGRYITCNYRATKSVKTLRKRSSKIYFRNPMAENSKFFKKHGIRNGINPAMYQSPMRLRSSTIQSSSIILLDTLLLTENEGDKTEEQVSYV

Compound	AC50 [1] [µM]	AC50 [2] [µM]	AC50 (Melanocortin receptor 4) [µM]	AC50 (Vasopressin V2 receptor) [µM]	AC50 [3] [µM]	AC50 [4] [µM]	AC50 (Cannabinoid receptor 1) [µM]	AC50 (Mu-type opioid receptor) [µM]	AC50 (Histamine H2 receptor) [µM]	AC50 [5] [µM]	AC50 [6] [µM]	AC50 [7] [µM]	AC50 (Vasopressin V1a receptor) [µM]	AC50 [8] [µM]
CC#CCn1c(N2CCC[C@@H](N)C2)nc2c1c(=O)n(Cc1nc(C)c3ccccc3n1)c(=O)n2C [LINAGLIPTIN]	> 10	> 10	41.8	> 30	> 10	> 30	> 10	> 30	> 10	> 10	> 10	> 10	> 30	
CC(CCc1ccccc1)NC(C)C(O)c1ccc(O)cc1 (configuration not stated) [NYLIDRIN]	> 10	> 10	> 30	> 30	> 10	> 30	> 10	9.9	> 10	> 10	0.218	> 10	> 10	
CC(=O)O[C@H]1C[C@@H]2CC[C@@H]3[C@H](CC[C@@]4(C)[C@H]3C[C@H]([N+]3(C)CCCCC3)[C@@H]4OC(C)=O)[C@@]2(C)C[C@@H]1[N+]1(C)CCCCC1 [PANCURONIUM]	> 10	> 10	> 10	> 10	> 10	> 10	> 10	> 30	> 10	> 10	> 10	> 10	> 10	
CC(C)CC(N(C)C)C1(c2ccc(Cl)cc2)CCC1 (configuration not stated) [SIBUTRAMINE]		> 30	> 30	> 30	> 10	> 30	> 10	> 30	> 10	> 10	> 10		> 10	> 30
[H]/N=C(/N)N[C@H]1[C@H](O)[C@@H](O)[C@H](O[C@@H]2O[C@@H](C)[C@](O)(C=O)[C@H]2O[C@@H]2O[C@@H](CO)[C@H](O)[C@@H](O)[C@@H]2NC)[C@@H](N/C(N)=N\[H])[C@@H]1O [STREPTOMYCIN]	> 30	> 30	> 30	> 30	> 30	> 30	> 30	> 10	> 30	> 30	> 30		> 30	> 30
Cc1cccc(N(C)C(=S)Oc2ccc3ccccc3c2)c1 [TOLNAFTATE]	> 10	> 10	> 10	> 10	> 30	> 10	> 10	> 30	> 30	> 10	> 10			> 30
COc1ccc(C(CN(C)C)C2(O)CCCCC2)cc1 (configuration not stated) [VENLAFAXINE]		> 10	> 30	> 30	> 10	> 30	5.5	> 30	> 30	> 10	> 10			> 30

From ChEMBL document CHEMBL5291721, “A preclinical secondary pharmacology resource illuminates target-adverse drug reaction associations of marketed drugs” (Nat Commun, 2023)
